Experimental data reported in patent publication US20250230193A1, “CYCLIC COMPOUND HAVING SELECTIVE KRAS INHIBITORY EFFECT ON HRAS AND NRAS” (CHUGAI SEIYAKU KABUSHIKI KAISHA, priority 2022, published 2025).
Where a SMILES comes first, the peptide text is derived from it. Bridges are numbered along the chain shown (N, C = ends). [ ]: non-standard residue; d: D form. The star is where a group is joined. hPhe(3,5-F2-4-CF3) = N[C@@H](CCc1cc(F)c(C(F)(F)F)c(F)c1)C(=O)O; hPhe(3-Cl-4-CF3) = N[C@@H](CCc1ccc(C(F)(F)F)c(Cl)c1)C(=O)O; NPrPhe(4-CF3) = CCCN[C@@H](Cc1ccc(C(F)(F)F)cc1)C(=O)O; NPrPhe(4-Me) = CCCN[C@@H](Cc1ccc(C)cc1)C(=O)O; NMeGly(cPent) = CN[C@H](C(=O)O)C1CCCC1; Aze(3S-Me) = C[C@H]1CN[C@@H]1C(=O)O; NMeD = CN[C@@H](CC(=O)O)C(=O)O; NMeL = CN[C@@H](CC(C)C)C(=O)O; Azetidin(1-yl) = C1CN(*)C1; αMeS = C[C@](N)(CO)C(=O)O; Morpholide = C1CN(*)CCO1; NMeA = CN[C@@H](C)C(=O)O; Ac5c = NC1(C(=O)O)CCCC1; Sar = CNCC(=O)O

How the values were obtained:
[1] = target: GDP-bound NRAS wild-type protein (Homo sapiens, UniProt P01111); experiment: Binding to NRAS by surface plasmon resonance (SPR), Single Cycle Kinetics
Chain of GDP-bound NRAS wild-type protein (P01111 whole entry): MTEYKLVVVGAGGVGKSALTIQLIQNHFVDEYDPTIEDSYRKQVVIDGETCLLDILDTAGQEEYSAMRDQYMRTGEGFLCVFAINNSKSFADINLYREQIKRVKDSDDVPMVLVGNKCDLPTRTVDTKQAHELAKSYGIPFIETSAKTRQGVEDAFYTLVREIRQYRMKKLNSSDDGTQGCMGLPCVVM

[2] = target: GDP-bound HRAS wild-type protein (Homo sapiens, UniProt P01112); experiment: Binding to HRAS by surface plasmon resonance (SPR), Single Cycle Kinetics
Chain of GDP-bound HRAS wild-type protein (P01112 whole entry): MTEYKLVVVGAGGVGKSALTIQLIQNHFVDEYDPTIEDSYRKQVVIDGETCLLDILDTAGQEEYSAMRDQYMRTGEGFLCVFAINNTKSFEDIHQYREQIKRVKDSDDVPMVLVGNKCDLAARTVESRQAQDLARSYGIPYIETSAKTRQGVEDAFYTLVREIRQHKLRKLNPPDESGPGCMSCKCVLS

[3] = KD ratio, GDP-bound NRAS wild-type vs GDP-bound KRAS wild-type, SPR
[4] = KD ratio, GDP-bound HRAS wild-type vs GDP-bound KRAS wild-type, SPR

With `CCC[C@H]1C(=O)N[C@@H]([C@@H](C)CC)C(=O)N(C)CC(=O)N(C)[C@H]2C/C=C\CCN(C2=O)[C@@H](Cc2ccc(C)cc2)C(=O)N(C)CC(=O)N[C@@H](CCc2ccc(C(F)(F)F)c(OC)c2)C(=O)N2C[C@@H](C)C[C@H]2C(=O)NC2(CCC2)C(=O)N(C)[C@@H](C2CCCC2)C(=O)N(C)[C@H](C(=O)N(C)CC)CC(=O)N1C` [PP1840] the “NRAS/KRAS (ratio of KD value for NRAS to KD value for KRAS)” value [1, 3] was “A (a compound having 10 or more and less than 20 is denoted as A)” and the “HRAS/KRAS (ratio of KD value for HRAS to KD value for KRAS)” value [2, 4] was “B (a compound having 3 or more and less than 10 is denoted as B)”.
With `CCCN1C(=O)CN(C)C(=O)CN(C)C(=O)[C@H]([C@@H](C)CC)NC(=O)[C@H](CC(C)C)N(C)C(=O)C[C@@H](C(=O)N2CCOCC2)N(C)C(=O)[C@H](C2CCCC2)N(C)C(=O)[C@](C)(COC)NC(=O)[C@@H]2CCCN2C(=O)[C@H](CCc2cc(F)c(C(F)(F)F)c(F)c2)NC(=O)CN(C)C(=O)[C@@H]1Cc1ccc(C(F)(F)F)cc1` [PP0762] ([NMeL]I[Sar][Sar][NPrPhe(4-CF3)][Sar][hPhe(3,5-F2-4-CF3)]P[αMeS](Me)[NMeGly(cPent)][NMeD]-Morpholide; lactam N-11) the “NRAS/KRAS (ratio of KD value with respect to GDP-bound NRAS wild-type protein to KD value with respect to KRAS)” value ([1]; SPR) was “B (a compound having 3 or more and less than 10 is denoted as B)” and the “HRAS/KRAS (ratio of KD value with respect to GDP-bound HRAS wild-type protein to KD value with respect to KRAS)” value ([2]; SPR) was “B (a compound having 3 or more and less than 10 is denoted as B)”.
With `CC[C@H](C)[C@@H]1NC(=O)[C@H](CC(C)C)N(C)C(=O)C[C@@H](C(=O)N2CCOCC2)N(C)C(=O)[C@H](C2CCCC2)N(C)C(=O)C2(CCC2)NC(=O)[C@@H]2C[C@@H](O)CN2C(=O)[C@H](CCc2cc(F)c(C(F)(F)F)c(F)c2)NC(=O)CN(C)C(=O)[C@H](Cc2ccc(C(F)(F)F)cc2)N2CCCCC[C@@H](C2=O)N(C)C(=O)CN(C)C1=O` [PP0871] the “NRAS/KRAS (ratio of KD value with respect to NRAS to KD value with respect to KRAS)” value [1, 3] was “B (a compound having 3 or more and less than 10 is denoted as B)” and the “HRAS/KRAS (ratio of KD value with respect to HRAS to KD value with respect to KRAS)” value [2, 4] was “B (a compound having 3 or more and less than 10 is denoted as B)”.
For `CCC[C@H]1C(=O)N[C@@H]([C@@H](C)CC)C(=O)N(C)CC(=O)N(C)[C@H]2C/C=C\CCN(C2=O)[C@@H](Cc2ccc(C)cc2)C(=O)N(C)CC(=O)N[C@@H](CCc2ccc(Cl)c(OC)c2)C(=O)N2C[C@H](OCC)C[C@H]2C(=O)NC2(CC(C)(C)C2)C(=O)N(C)[C@@H](C2CCCC2)C(=O)N(C)[C@H](C(=O)N(C)C)CC(=O)N1C` [PP2790], the “NRAS/KRAS (ratio of KD value with respect to GDP-bound NRAS wild-type protein to KD value with respect to KRAS)” value ([1]; class symbols) was “A (a compound having 10 or more and less than 20 is denoted as A)” and the “HRAS/KRAS (ratio of KD value with respect to GDP-bound HRAS wild-type protein to KD value with respect to KRAS)” value ([2]; class symbols) was “A (a compound having 10 or more and less than 20 is denoted as A)”.
In the case of `CCCN1C(=O)CN(C)C(=O)CN(C)C(=O)[C@H]([C@@H](C)CC)NC(=O)[C@H](CC(C)C)N(C)C(=O)C[C@@H](C(=O)N2CCC2)N(C)C(=O)[C@H](C2CCCC2)N(C)C(=O)C2(CCCC2)NC(=O)[C@@H]2CCCN2C(=O)[C@H](CCc2ccc(C(F)(F)F)c(Cl)c2)NC(=O)CN(C)C(=O)[C@@H]1Cc1ccc(C(F)(F)F)cc1` [PP0172] ([NMeL]I[Sar][Sar][NPrPhe(4-CF3)][Sar][hPhe(3-Cl-4-CF3)]P[Ac5c][NMeGly(cPent)][NMeD]-{Azetidin(1-yl)}; lactam N-11), the “NRAS/KRAS (ratio of KD for GDP-bound NRAS wild-type to KD for KRAS)” value ([1]; SPR) is reported as “B (a compound having 3 or more and less than 10 is denoted as B)” and the “HRAS/KRAS (ratio of KD for GDP-bound HRAS wild-type to KD for KRAS)” value ([2]; SPR) is reported as “C (A compound having a KD ratio of 0.1 or more and less than 3 is denoted as C)”.
`CCO[C@@H]1C[C@H]2C(=O)NC3(CCC3)C(=O)N(C)[C@@H](C3CCCC3)C(=O)N(C)[C@H](C(=O)N3CCOCC3)CC(=O)N(C)[C@@H](Cc3cccc(C#N)c3)C(=O)N[C@@H]([C@@H](C)CC)C(=O)N(C)CC(=O)N(C)[C@H]3CCCCCN(C3=O)[C@@H](Cc3ccc(F)cc3)C(=O)N(C)CC(=O)N[C@@H](CCc3cc(F)c(C(F)(F)F)c(F)c3)C(=O)N2C1` [PP1186] was tested, and the “NRAS/KRAS (ratio of KD value with respect to NRAS to KD value with respect to KRAS)” value [1, 3] was “B (a compound having 3 or more and less than 10 is denoted as B)” and the “HRAS/KRAS (ratio of KD value with respect to HRAS to KD value with respect to KRAS)” value [2, 4] was “B (a compound having 3 or more and less than 10 is denoted as B)”.
For `CCCN1C(=O)[C@@H]2[C@@H](C)CN2C(=O)[C@H](C)N(C)C(=O)[C@H]([C@@H](C)CC)NC(=O)[C@H](CC(C)C)N(C)C(=O)C[C@@H](C(=O)N2CCOCC2)N(C)C(=O)[C@H](C2CCCC2)N(C)C(=O)C2(CCCC2)NC(=O)[C@@H]2CCCN2C(=O)[C@H](CCc2ccc(C(F)(F)F)c(Cl)c2)NC(=O)CN(C)C(=O)[C@@H]1Cc1ccc(C)cc1` [PP0138] ([NMeL]I[NMeA][Aze(3S-Me)][NPrPhe(4-Me)][Sar][hPhe(3-Cl-4-CF3)]P[Ac5c][NMeGly(cPent)][NMeD]-Morpholide; lactam N-11), the “NRAS/KRAS (ratio of KD for GDP-bound NRAS wild-type to KD for KRAS)” value ([1]; SPR) was “C (A compound having a KD ratio of 0.1 or more and less than 3 is denoted as C)” and the “HRAS/KRAS (ratio of KD for GDP-bound HRAS wild-type to KD for KRAS)” value ([2]; SPR) was “C (A compound having a KD ratio of 0.1 or more and less than 3 is denoted as C)”.
